Here are results for 16 compounds from patent US8871753B2, “Macrocyclic compounds and their use as kinase inhibitors” (Incyte Corporation, priority 2008, dated 2014).

Where a name gives a salt, the structure may show the parent alone. Read-outs that look alike come from different tables or passages of the source.

Format in all cases: biochemical
The target of experiment [1] is T1, human JAK3 (a.a. 781-1124) (Homo sapiens, UniProt P52333).
T1 construct: JAK3 (a.a. 781-1124); His tag (N); made in house; host or cells: insect cells (baculovirus)
Description: In vitro JAK kinase assay (HTRF, phosphorylation of a biotinylated peptide), JAK3. The gist of the method: (§1)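 Kinase reactions ran at room temperature for 1 h with ATP matched per isoform (JAK1 90 μM, JAK2 30 μM, JAK3 3 μM). After an EDTA stop, the phosphorylated biotin-peptide was read by HTRF using Eu-Py20 and SA-APC after 40 min binding.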

The target of experiment [2] is T2, human JAK1 (a.a. 837-1142) (Homo sapiens, UniProt P23458).
T2 construct: human JAK1 (a.a. 837-1142); His tag (N); made in house; host or cells: insect cells (baculovirus)
Description: In vitro JAK kinase assay (HTRF, phosphorylation of a biotinylated peptide), JAK1. Conditions: read-out: JAK1 IC50. The gist of the method:
as §1
Background: Time-resolved FRET reads energy transfer from a long-lived donor to a nearby acceptor.

In the next experiment the target is TYK2 (Homo sapiens, UniProt P29597). Description: TYK2 kinase inhibition (Table A1).
For experiment [3], the target named is T3, human JAK2 (a.a. 828-1132) (Homo sapiens, UniProt O60674).
T3 construct: JAK2 (a.a. 828-1132); His tag (N); made in house; host or cells: insect cells (baculovirus)
Description: In vitro JAK kinase assay (HTRF, phosphorylation of a biotinylated peptide), JAK2. In outline:
as §1

T3 sequence (O60674 828-1132): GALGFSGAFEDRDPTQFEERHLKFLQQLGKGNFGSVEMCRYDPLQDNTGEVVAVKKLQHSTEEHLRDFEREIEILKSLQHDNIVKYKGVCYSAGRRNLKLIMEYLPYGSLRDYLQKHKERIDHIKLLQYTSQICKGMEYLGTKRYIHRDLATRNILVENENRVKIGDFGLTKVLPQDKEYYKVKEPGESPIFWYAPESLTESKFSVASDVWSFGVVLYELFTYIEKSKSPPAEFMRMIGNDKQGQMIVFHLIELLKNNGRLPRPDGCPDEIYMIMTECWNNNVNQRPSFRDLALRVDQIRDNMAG
TYK2, sequence (P29597 whole entry): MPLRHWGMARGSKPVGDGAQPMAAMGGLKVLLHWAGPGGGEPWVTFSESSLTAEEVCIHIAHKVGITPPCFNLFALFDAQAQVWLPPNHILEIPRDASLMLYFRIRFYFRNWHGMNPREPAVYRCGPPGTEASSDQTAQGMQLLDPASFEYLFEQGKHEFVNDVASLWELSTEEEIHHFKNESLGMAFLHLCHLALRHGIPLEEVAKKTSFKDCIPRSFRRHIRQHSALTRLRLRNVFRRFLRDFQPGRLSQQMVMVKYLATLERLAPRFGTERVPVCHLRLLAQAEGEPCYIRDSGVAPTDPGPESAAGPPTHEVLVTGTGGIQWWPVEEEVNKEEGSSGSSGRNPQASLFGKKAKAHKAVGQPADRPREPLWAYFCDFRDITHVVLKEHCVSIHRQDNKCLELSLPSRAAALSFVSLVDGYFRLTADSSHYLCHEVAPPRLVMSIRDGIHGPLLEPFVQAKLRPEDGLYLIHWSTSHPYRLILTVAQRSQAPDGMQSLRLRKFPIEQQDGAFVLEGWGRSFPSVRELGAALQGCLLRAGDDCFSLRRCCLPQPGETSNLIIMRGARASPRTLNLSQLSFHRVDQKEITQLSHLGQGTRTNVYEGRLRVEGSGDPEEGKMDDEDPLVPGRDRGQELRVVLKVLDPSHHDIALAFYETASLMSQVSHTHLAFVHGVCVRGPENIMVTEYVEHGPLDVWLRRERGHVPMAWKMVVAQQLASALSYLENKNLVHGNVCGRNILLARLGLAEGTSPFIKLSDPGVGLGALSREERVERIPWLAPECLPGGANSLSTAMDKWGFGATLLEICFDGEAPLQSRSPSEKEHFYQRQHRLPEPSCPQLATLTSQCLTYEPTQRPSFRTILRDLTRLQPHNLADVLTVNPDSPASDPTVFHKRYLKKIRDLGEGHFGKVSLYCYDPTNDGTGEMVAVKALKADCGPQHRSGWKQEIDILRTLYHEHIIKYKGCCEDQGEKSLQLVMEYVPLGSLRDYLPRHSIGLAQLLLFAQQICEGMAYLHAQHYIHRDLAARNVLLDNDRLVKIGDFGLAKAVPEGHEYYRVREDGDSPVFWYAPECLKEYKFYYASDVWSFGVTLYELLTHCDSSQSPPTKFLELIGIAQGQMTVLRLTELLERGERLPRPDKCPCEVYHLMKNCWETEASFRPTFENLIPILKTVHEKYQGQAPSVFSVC
T2 sequence (P23458 849-1154): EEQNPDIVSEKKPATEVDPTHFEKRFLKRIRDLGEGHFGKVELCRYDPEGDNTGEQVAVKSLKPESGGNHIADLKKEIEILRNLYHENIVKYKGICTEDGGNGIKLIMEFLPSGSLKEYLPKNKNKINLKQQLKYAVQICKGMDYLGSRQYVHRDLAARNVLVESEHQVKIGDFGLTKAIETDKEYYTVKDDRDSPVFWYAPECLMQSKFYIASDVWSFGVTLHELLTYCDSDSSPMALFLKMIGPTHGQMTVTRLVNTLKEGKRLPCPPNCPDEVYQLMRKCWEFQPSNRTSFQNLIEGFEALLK
T1 sequence (P52333 781-1124): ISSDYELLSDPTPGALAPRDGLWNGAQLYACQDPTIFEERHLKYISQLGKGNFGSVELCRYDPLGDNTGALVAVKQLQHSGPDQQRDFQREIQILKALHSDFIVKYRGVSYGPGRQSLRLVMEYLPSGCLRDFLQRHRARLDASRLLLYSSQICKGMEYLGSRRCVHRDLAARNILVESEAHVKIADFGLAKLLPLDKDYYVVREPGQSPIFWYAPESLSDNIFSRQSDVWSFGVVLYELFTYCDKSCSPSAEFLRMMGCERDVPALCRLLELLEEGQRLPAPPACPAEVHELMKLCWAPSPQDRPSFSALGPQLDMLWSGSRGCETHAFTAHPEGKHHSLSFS

In the case of `O=C(C[C@@H]1CCCN(C(=O)Nc2ccccc2)C1)Nc1ccc2cc1CCc1cncc(c1)Nc1ncc(Cl)c(n1)N2` [Example D198, (3S)-3-(2-{[6-Chloro-2,4,8,18,22-pentaazatetracyclo[14.3.1.1(3,7).1(9,13)]docosa-1(20),3(22),4,6,9(21),10,12,16,18-nonaen-12-yl]amino}-2-oxoethyl)-N-phenylpiperidine-1-carboxamide bis(trifluoroacetate)], the IC50 (in general, the concentration that gives 50% inhibition) in experiment [1] (Table D1) is 69 nM; in experiment [2] (Table D1), 5.7 nM; at TYK2 (Table D1), 27 nM; in experiment [3] (Table D1), 10 nM.

For `O=C(Nc1ccc(C(F)(F)F)cc1)N1CCN(c2ccc3cc2CCc2cccc(c2)Nc2ncc(Cl)c(n2)N3)CC1` [Example D90, 4-[6-Chloro-2,4,8,22-tetraazatetracyclo[14.3.1.1(3,7).1(9,13)]docosa-1(20),3(22),4,6,9(21),10,12,16,18-nonaen-12-yl]-N-[4-(trifluoromethyl)phenyl]piperazine-1-carboxamide bis(trifluoroacetate)], the IC50 was found to be 108 nM in experiment [1] (Table D1), 127 nM in experiment [2] (Table D1), 70 nM against TYK2 (Table D1) and 23 nM in experiment [3] (Table D1).

Consider `O=C(C[C@@H]1CCCN(C(=O)Nc2ccccc2)C1)Nc1ccc2cc1CCc1cccc(c1)Nc1ncc(Cl)c(n1)N2` [Example D196, (3S)-3-(2-{[6-Chloro-2,4,8,22-tetraazatetracyclo[14.3.1.1(3,7).1(9,13)]docosa-1(20),3(22),4,6,9(21),10,12,16,18-nonaen-12-yl]amino}-2-oxoethyl)-N-phenylpiperidine-1-carboxamide trifluoroacetate], for which the IC50 in experiment [1] (Table D1) was 57 nM; in experiment [2] (Table D1), 11 nM; against TYK2 (Table D1), 31 nM; in experiment [3] (Table D1), 6.4 nM.

As for `O=C(C[C@@H]1CCCNC1)Nc1ccc2cc1CCc1cccc(c1)Nc1ncc(Cl)c(n1)N2` [Example D192, N-[6-Chloro-2,4,8,22-tetraazatetracyclo[14.3.1.1(3,7).1(9,13)]docosa-1(20),3(22),4,6,9(21),10,12,16,18-nonaen-12-yl]-2-[(3S)-piperidin-3-yl]acetamidebis(trifluoroacetate)], the concentration for half-maximal inhibition (IC50) in experiment [1] (Table D1) amounted to 104 nM; in experiment [2] (Table D1), 4.7 nM; at TYK2 (Table D1), 13 nM; in experiment [3] (Table D1), 9.8 nM.

As for `O=C(c1ccccc1)N1CCN(c2ccc3cc2CCc2cccc(c2)Nc2ncc(Cl)c(n2)N3)CC1` [Example D94, 12-(4-Benzoylpiperazin-1-yl)-6-chloro-2,4,8,22-tetraazatetracyclo[14.3.1.1(3,7).1(9,13)]docosa-1(20),3(22),4,6,9(21),10,12,16,18-nonaene bis(trifluoroacetate)], the concentration for half-maximal inhibition (IC50) in experiment [1] (Table D1) was 138 nM; in experiment [2] (Table D1), 79 nM; at TYK2 (Table D1), 160 nM; in experiment [3] (Table D1) it was 43 nM.

Turning to `CC(=O)N1CCC(CCNc2ccc3cc2CCc2cncc(c2)Nc2ncc(Cl)c(n2)N3)CC1` [Example D219, N-[2-(1-Acetylpiperidin-4-yl)ethyl]-6-chloro-2,4,8,18,22-pentaazatetracyclo[14.3.1.1(3,7).1(9,13)]docosa-1(20),3(22),4,6,9(21),10,12,16,18-nonaen-12-amine tris(trifluoroacetate)], the IC50 in experiment [1] (Table D1) is over 400 nM; in experiment [2] (Table D1) it was 14 nM; against TYK2 (Table D1), 38 nM; in experiment [3] (Table D1) it was 49 nM.

On to `CN1CCN(Cc2cc3cc(c2)Nc2ncc(Cl)c(n2)Nc2cccc(c2)OCC3)CC1` [Example D190, 6-Chloro-19-[(4-methylpiperazin-1-yl)methyl]-14-oxa-2,4,8,23-tetraazatetracyclo[15.3.1.1(3,7).1(9,13)]tricosa-1(21),3(23),4,6,9(22),10,12,17,19-nonaene tris(trifluoroacetate)], for which the concentration for half-maximal inhibition (IC50) in experiment [1] (Table D1) is 3 nM; in experiment [2] (Table D1) it was 24 nM; at TYK2 (Table D1), 3.5 nM; in experiment [3] (Table D1), 0.9 nM.

For the compound `N#CCC(=O)N1CCN(C(=O)COc2ccc3cc2CCc2cncc(c2)Nc2ncc(Cl)c(n2)N3)CC1` [Example D269, 3-[4-({[6-Chloro-2,4,8,18,22-pentaazatetracyclo[14.3.1.1(3,7).1(9,13)]docosa-1(20),3(22),4,6,9(21),10,12,16,18-nonaen-12-yl]oxy}acetyl)piperazin-1-yl]-3-oxopropanenitrile bis(trifluoroacetate)], the IC50 is over 400 nM in experiment [1] (Table D1), 29 nM in experiment [2] (Table D1), over 400 nM on TYK2 (Table D1) and 226 nM in experiment [3] (Table D1).

Take `O=C(Nc1ccc(F)cc1)N1CCC(CCOc2ccc3cc2CCc2cncc(c2)Nc2ncc(Cl)c(n2)N3)CC1` [Example D168, 4-(2-{[6-Chloro-2,4,8,18,22-pentaazatetracyclo[14.3.1.1(3,7).1(9,13)]docosa-1(20),3(22),4,6,9(21),10,12,16,18-nonaen-12-yl]oxy}ethyl)-N-(4-fluorophenyl)piperidine-1-carboxamide bis(trifluoroacetate)]: the IC50 in experiment [1] (Table D1) was over 400 nM; in experiment [2] (Table D1), 34 nM; on TYK2 (Table D1) it was over 400 nM; in experiment [3] (Table D1), 255 nM.

On to `O=C(Nc1ccc2cc1CCc1cccc(c1)Nc1ncc(Cl)c(n1)N2)C1CCN(C(=O)Nc2ccc(Cl)nc2)CC1` [Example A40, N(1)-(6-Chloropyridin-3-yl)-N(4)-[6-chloro-2,4,8,22-tetraazatetracyclo[14.3.1.1(3,7).1(9,13)]docosa-1(20),3(22),4,6,9(21),10,12,16,18-nonaen-12-yl]piperidine-1,4-dicarboxamide bis(trifluoroacetate)], for which the IC50 in experiment [1] (method AA1 (3 μM ATP) or AA2 (1000 μM ATP), not stated per value) came to 30 nM; in experiment [2] (method AA1 (90 μM ATP) or AA2 (1000 μM ATP), not stated per value), 16 nM; against TYK2, 18 nM; in experiment [3] (method AA1 (30 μM ATP) or AA2 (1000 μM ATP), not stated per value), 15 nM.

For `CC(=O)N1CCC(COc2ccc3cc2CCc2cncc(c2)Nc2ncc(Cl)c(n2)N3)CC1` [Example D227, 12-[(1-Acetylpiperidin-4-yl)methoxy]-6-chloro-2,4,8,18,22-pentaazatetracyclo[14.3.1.1(3,7).1(9,13)]docosa-1(20),3(22),4,6,9(21),10,12,16,18-nonaene bis(trifluoroacetate)], the IC50 in experiment [1] (Table D1) is over 400 nM; in experiment [2] (Table D1), 72 nM; on TYK2 (Table D1), over 400 nM; in experiment [3] (Table D1) it was 148 nM.

With `O=C(COc1ccc2cc1CCc1cncc(c1)Nc1ncc(Cl)c(n1)N2)N1CCN(c2cc(Cl)cc(Cl)n2)CC1` [Example D247, 6-Chloro-12-{2-[4-(4,6-dichloropyridin-2-yl)piperazin-1-yl]-2-oxoethoxy}-2,4,8,18,22-pentaazatetracyclo[14.3.1.1(3,7).1(9,13)]docosa-1(20),3(22),4,6,9(21),10,12,16,18-nonaene tris(trifluoroacetate)], the IC50 in experiment [1] (Table D1) is over 400 nM; in experiment [2] (Table D1) it was 82 nM; against TYK2 (Table D1), over 400 nM; in experiment [3] (Table D1), over 400 nM.

As for `O=C(COc1ccc2cc1CCc1cncc(c1)Nc1ncc(Cl)c(n1)N2)N1CCN(c2ccc(F)cc2)CC1` [Example D242, 6-Chloro-12-{2-[4-(4-fluorophenyl)piperazin-1-yl]-2-oxoethoxy}-2,4,8,18,22-pentaazatetracyclo[14.3.1.1(3,7).1(9,13)]docosa-1(20),3(22),4,6,9(21),10,12,16,18-nonaene tris(trifluoroacetate)], the IC50 in experiment [1] (Table D1) was over 400 nM; in experiment [2] (Table D1) it was 46 nM; against TYK2 (Table D1), over 400 nM; in experiment [3] (Table D1) it was 159 nM.

`O=C(CC1CN(C(=O)c2c[nH]nn2)C1)Nc1ccc2cc1CCc1cncc(c1)Nc1ncc(Cl)c(n1)N2` [Example D148, N-[6-Chloro-2,4,8,18,22-pentaazatetracyclo[14.3.1.1(3,7).1(9,13)]docosa-1(20),3(22),4,6,9(21),10,12,16,18-nonaen-12-yl]-2-[1-(1H-1,2,3-triazol-4-ylcarbonyl)azetidin-3-yl]acetamide bis(trifluoroacetate)]: the IC50 is over 1000 nM in experiment [1] (Table D1), 15 nM in experiment [2] (Table D1), 414 nM against TYK2 (Table D1) and 34 nM in experiment [3] (Table D1).

Regarding `O=C(CC1CCN(c2ccncc2)C1)Nc1ccc2cc1CCc1cncc(c1)Nc1ncc(Cl)c(n1)N2` (stereo not shown) [Example D157, N-[6-Chloro-2,4,8,18,22-pentaazatetracyclo[14.3.1.1(3,7).1(9,13)]docosa-1(20),3(22),4,6,9(21),10,12,16,18-nonaen-12-yl]-2-(1-pyridin-4-ylpyrrolidin-3-yl)acetamide tris(trifluoroacetate)], the IC50 in experiment [1] (Table D1) is over 400 nM; in experiment [2] (Table D1), 39 nM; against TYK2 (Table D1) it was over 400 nM; in experiment [3] (Table D1) it was over 400 nM.

As to `O=C(Cn1c(=O)oc2c3cc(cc21)Nc1nc(ncc1Cl)Nc1cccc(c1)CC3)N1CCN(c2ccccc2)CC1` [Example D188, 4-Chloro-20-[2-oxo-2-(4-phenylpiperazin-1-yl)ethyl]-18-oxa-2,6,8,20,25-pentaazapentacyclo[14.6.1.1(3,7).1(9,13).0(17,21)]pentacosa-1(23),3(25),4,6,9(24),10,12,16,21-nonaen-19-one bis(trifluoroacetate)], the IC50 is 79 nM in experiment [1] (Table D1), 32 nM in experiment [2] (Table D1), over 1000 nM against TYK2 (Table D1) and 32 nM in experiment [3] (Table D1).
